Laboratory results reported in patent EP1325958A1, “Genetic sequence coding for creatinine deiminase, and its use” (CampusGen GmbH, priority 2002, dated 2003).

Columns and labels:
[1] = test system: Creatinin-Deiminase (EC 3.5.4.21) aus Tissierella creatinini, heterolog in E. coli exprimiert, gereinigt, SEQ ID NO:2; experiment: Interference studies: substances added to the standard creatinine deiminase test, enzyme activity determined; assay type: biochemical; conditions: for Keine Interferenzen bis zu einer Konzentration von: substance added to the standard test (Creatinin 1,5 mmol/l, 37°C, pH 8,6), no interference with the enzyme test at the stated concentration
Description: Dieses erfindungsgemäße Verfahren ermöglicht die Bestimmung von Creatinin bei Einsatz von nur zwei Enzymen, die in einer Mess- bzw. Indikatorreaktion eingesetzt werden, wobei keine komplizierten Hilfsreaktionen erforderlich sind. Wie in Tabelle 1 gezeigt ist, weist die erfindungsgemäße Creatinin-Deiminase eine außerordentlich hohe Spezifität für sein Substrat Creatinin auf. Das Enzym zeigt insbesondere mit Cytosin bis zu einer Konzentration von […] keine Interferenz in der Reaktion. Somit ermöglicht die erfindungsgemäße Creatinin-Deiminase eine Bestimmung von Creatinin auch in Gegenwart anderer Substrate, insbesondere Cytosin ohne das Auftreten einer Interferenz, die das Messergebnis verfälschen würde. Tabelle 1:
Die Aktivität des gereinigten rekombinanten Enzyms wurde durch eine modifizierte enzymatische Methode nach Bergmeyer 1985 (BERGMEYER, H.U. (1985). Methods of enzymatic analysis 8: 488-507) bestimmt. Sie beruht auf der Messung des während der Creatinindeiminierung freigesetzten Ammoniaks in einem gekoppelten optischen Test durch Verbrauch von NADH bei 340 nm bzw. 365 nm. Der Reaktionsansatz enthielt folgende Konzentrationen in einem Endvolumen von 0,6 ml: TEA-Puffer 0,11 mol/l, pH 8,6; Creatinin 1,5 mmol/l; ADP 1,11 mmol/l; DTE 1 mmol/l; NADH 0,11 mmol/l; 2-Oxoglutarat 11 mmol/l; Glutamat-Dehydrogenase 8 U/ml. Nach Inkubation des Reaktionsansatzes (5 min bei 37°C) in einer Küvette im Photometer wurde die Reaktion mit 0,01 ml des gereinigten rekombinanten Enzyms gestartet und die Extinktionsabnahme bei 340 nm beobachtet. Eine Enzymeinheit katalysiert den Abbau von 1 µmol Creatinin/min bei 37°C.
Es wurden Interferenzstudien mit der gereinigten heterolog exprimierten Creatinin-Deiminase mit verschiedenen in Seren relevanten Substanzen durchgeführt. Diese wurden zum Standardtestansatz gegeben und jeweils die Aktivität der Creatinin-Deiminase bestimmt. In Tabelle 1 sind die getesteten relevanten Substanzen aufgelistet, die in den angegebenen Konzentrationen keine Interferenzen mit dem Enzymtest zeigten. Die rekombinante Creatinin-Deiminase zeigte eine außerordentliche Substratspezifität bei Zusatz der in Tabelle 1 angegebenen Substanzen.

[2] = test system: Creatinin-Deiminase (EC 3.5.4.21) aus Tissierella creatinini, heterolog in E. coli exprimiert, gereinigt, SEQ ID NO:2; experiment: Substrate saturation of purified recombinant creatinine deiminase (coupled optical test, Lineweaver-Burk plot); assay type: biochemical
Text: Abb. 1: Biosynthese von Creatin und Creatinin im menschlichen Körper. Die Synthese erfolgt in mehreren Schritten in verschiedenen Körperorganen. Abb. 2: Enzymatische Bestimmung von Creatinin mit Creatininase, Creatin-Kinase, Pyruvat-Kinase und Laktatdehydrogenase. Creatinin wird katalysiert durch Creatininase und Creatin-Kinase gekoppelt mit Pyruvatbildung. Das Pyruvat wird in der Indikatorreaktion in Gegenwart von Laktatdehydrogenase zu Laktat umgesetzt und dabei eine Extinktionsabnahme bei 340 nm von NADH gemessen. Abb.3: Enzymatische Bestimmung von Creatinin mit Creatininase, Creatinase, Sarcosinoxidase und Peroxidase. Creatinin wird katalysiert durch Creatininase, Creatinase und Sarcosinoxidase zu Glycin, Formaldehyd und H2O2 abgebaut. Das H2O2 wird in der Indikatorreaktion mittels Peroxidase anhand der Extinktionszunahme bei 510 oder 546 nm bestimmt. Abb.4: Enzymatische Bestimmung von Creatinin mit Creatinin-Deiminase und Glutamatdehydrogenase. Creatinin wird katalysiert durch Creatinin-Deiminase zu N-Methylhydantoin und Ammoniak abgebaut. Der Ammoniak wird mit α-Ketoglutarat und NADH mittels Glutamat-Dehydrogenase zu Glutamat umgesetzt und photometrisch die Extinktionsabnahme durch Verbrauch an NADH bei 340 bzw. 365 nm gemessen. Abb. 5: Schematische Darstellung des pBluescriptSK^+-Vektors. Gezeigt sind einige Restriktionsschnittstellen. […]

Row | SMILES | Keine Interferenzen bis zu einer Konzentration von [1] | further results
1 | Nc1nc(=O)[nH]cc1F [5-Fluorocytosin] | 1000 mg/L | 
2 | CC(C)=O [Aceton] | 2000 mg/L | 
3 | O=C1O[C@H]([C@@H](O)CO)C(O)=C1O [Ascorbinsäure] | 200 mg/L | 
4 | C[C@H](CS)C(=O)N1CCC[C@H]1C(=O)O [Captopril] | 83 mg/L | 
5 | CN(CC(=O)O)C(=N)N [Creatin] | 2000 mg/L | 
6 | CN1CC(=O)N=C1N [Creatinin] |  | Km ([2]; purified recombinant enzyme, 0,06 µg per test, coupled optical test, 37°C, TEA-Puffer pH 8,6, read-out: Km-Wert für Creatinin): 1100 µM; Vmax ([2]; substrate Creatinin, this enzyme preparation, Proteinkonzentration: 6 µg/ml --> 1467 U/mg): 8,8 U/ml
7 | Nc1cc[nH]c(=O)n1 [Cytosin] | 2000 mg/L | keine Interferenz in der Reaktion bis zu einer Konzentration von ([1]; statement in the text referring to Tabelle 1): 2000 mg/mL
8 | CNC[C@H](O)c1ccc(O)c(O)c1 [Epinephrin] | 0,05 mg/l | 
9 | NS(=O)(=O)c1cc(C(=O)O)c(NCc2ccco2)cc1Cl [Fuoresemid] | 4433 mg/L | 
10 | OC[C@H]1OC(O)[C@H](O)[C@@H](O)[C@@H]1O (some centres unmarked) [Glukose] | 1100 mg/L | 
11 | N[C@@H](Cc1c[nH]cn1)C(=O)O [Histidin] | 2250 mg/L | 
12 | NCC(O)c1cccc(O)c1 (centres unmarked) [Norfenefrin] | 1,5 mg/l | 
13 | O=C(O)C(=O)O [Oxalsäure] | 400 mg/L | 
14 | O=C(O)c1cc(N=Nc2ccc(S(=O)(=O)Nc3ccccn3)cc2)ccc1O [Salazosulfapyridin] | 550 mg/L | 
15 | Cc1cc(NS(=O)(=O)c2ccc(N)cc2)no1 [Sulfatmethoxazol] | 500 mg/L | 
16 | COc1cc(Cc2cnc(N)nc2N)cc(OC)c1OC [Trimethoprim] | 46 mg/L | 
17 | CN[C@H](CC(C)C)C(=O)N[C@H]1C(=O)N[C@@H](CC(N)=O)C(=O)N[C@H]2C(=O)N[C@H]3C(=O)N[C@H](C(=O)N[C@H](C(=O)O)c4cc(O)cc(O)c4-c4cc3ccc4O)[C@H](O)c3ccc(c(Cl)c3)Oc3cc2cc(c3O[C@@H]2O[C@H](CO)[C@@H](O)[C@H](O)[C@H]2O[C@H]2C[C@](C)(N)[C@H](O)[C@H](C)O2)Oc2ccc(cc2Cl)[C@H]1O [Vancomycin] | 288 mg/L | 
18 | CC(N)(Cc1ccc(O)c(O)c1)C(=O)O (stereo not drawn) [α-Methyl-Dopa] | 107 mg/L | 
